From PubChem BioAssay (NCI)
“And” between values parts separate entries of the source, which are not always exact repeats. Equal values may be shown once.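 Assay format: 96-well plates, 48-hour exposure. At the GI50, growth is halved. The concentration for full growth arrest is given as TGI.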

Key:
Test in all cases: NCI-60 cell line screen, 48 h
[1] = system: COLO 205 colon
[2] = system: HCC-2998 colon
[3] = system: HOP-92 NSCLC
[4] = system: OVCAR-8 ovarian
[5] = system: SK-MEL-5 melanoma
[6] = system: SK-OV-3 ovarian
[7] = system: SN12C renal
[8] = system: SNB-19 CNS
[9] = system: SW-620 colon
[10] = system: CCRF-CEM leukemia

With CC(=O)OC1CCn2nnc(CO)c21 (stereo not given) the TGI [1] was > 100 µM, the TGI [2] was > 100 µM and the TGI [3] was > 100 µM. For the same compound, the TGI [4] was > 100 µM, the TGI [5] was > 100 µM and the TGI [6] was > 100 µM. For the same compound, the TGI [7] was > 100 µM, the TGI [8] was > 100 µM and the TGI [9] was > 100 µM.
Compound C#CC1(OC(C)=O)CCC2C3CC=C4C=C(OC(C)=O)CCC4(C)C3CCC21C (stereo not given) has a TGI [10] of 30.5 µM, a TGI [1] of 58.5 µM and a TGI [2] of 32.9 µM. It also gave a TGI [3] of 32.9 µM, a TGI [4] of 46.3 µM and a TGI [5] of 34.1 µM. For the same compound, the TGI [6] was > 100 µM, the TGI [7] was 45.1 µM and the TGI [8] was > 100 µM. For the same compound, the TGI [9] was 49.3 µM.
In the case of Cc1cc(=O)oc2c(C)c(O)ccc12, the TGI [10] is reported as > 100 µM, the TGI [1] is reported as > 100 µM and the TGI [2] is reported as > 100 µM. For the same compound, the TGI [3] was > 100 µM, the TGI [4] was > 100 µM and the TGI [5] was > 100 µM. The TGI [7] was > 100 µM, the TGI [8] was > 100 µM and the TGI [9] was > 100 µM.
In the case of COc1ccc2c3c([nH]c2c1[N+](=O)[O-])C(C)N(Cc1ccc([N+](=O)[O-])cc1)CC3 (stereo not given), the TGI [10] is reported as > 100 µM, the TGI [1] is reported as 35.8 µM and the TGI [2] is reported as 37.3 µM. The TGI [4] was 64.4 µM, the TGI [7] was 60.7 µM and the TGI [8] was > 100 µM. The TGI [9] was > 100 µM.
Work on O=S(=O)(NCCCNc1nccc(-c2c(-c3ccc(F)c(O)c3)nc3sccn23)n1)c1ccc(F)cc1 yielded a GI50 [10] of 1580 nM, a TGI [10] of 6.07 µM and a GI50 [1] of 1480 nM. The TGI [1] was 9.67 µM, the GI50 [2] was 2.86 µM and the TGI [2] was 7.17 µM. It also gave a GI50 [3] of 1.46 µM, a TGI [3] of 6.24 µM and a GI50 [4] of 2.3 µM. The TGI [4] was > 100 µM, the GI50 [5] was 1.42 µM and the TGI [5] was 2.8 µM. For the same compound, the GI50 [6] was 2.22 µM, the TGI [6] was 7.01 µM and the GI50 [8] was 3.33 µM. For the same compound, the TGI [8] was > 100 µM, the GI50 [9] was 3.9 µM and the TGI [9] was > 100 µM.
COc1cccc(/C=C/[N+](=O)[O-])c1 was tested, and the GI50 [10] was 2800 nM, the TGI [10] was 7.32 µM and the GI50 [1] was 1860 nM. For the same compound, the TGI [1] was 3.54 µM, the GI50 [2] was 1.93 µM and the TGI [2] was 3.51 µM. For the same compound, the GI50 [3] was 15.9 µM, the TGI [3] was 34.6 µM and the GI50 [4] was 10.7 µM. The TGI [4] was 25.1 µM, the GI50 [5] was 10.5 µM and the TGI [5] was 22.5 µM. For the same compound, the GI50 [6] was 11.5 µM, the TGI [6] was 23.6 µM and the GI50 [7] was 15.2 µM. For the same compound, the TGI [7] was 37.2 µM, the GI50 [8] was 16.5 µM and the TGI [8] was 37 µM. For the same compound, the GI50 [9] was 1.97 µM and the TGI [9] was 4.27 µM.
In the case of O=C1NC(=O)C(c2ccccc2Cl)=C1Nc1cc(Cl)c(O)c(Cl)c1, the GI50 [1] is reported as > 18100 nM, the TGI [1] is reported as > 25 µM and the GI50 [2] is reported as > 25 µM. The TGI [2] was > 25 µM, the GI50 [4] was 17.6 µM and the TGI [4] was > 25 µM. For the same compound, the GI50 [5] was 11.7 µM, the TGI [5] was > 25 µM and the GI50 [6] was 16.3 µM. The TGI [6] was > 25 µM, the GI50 [7] was > 21.5 µM and the TGI [7] was > 25 µM. The GI50 [8] was > 25 µM, the TGI [8] was > 25 µM and the GI50 [9] was 9.74 µM. For the same compound, the TGI [9] was > 25 µM.
In the case of CN1CC(=O)N(C)c2ncn(Cc3ccccc3)c2C1=O, the TGI [10] is reported as > 100 µM, the TGI [1] is reported as > 100 µM and the TGI [2] is reported as > 100 µM. The TGI [4] was > 100 µM, the TGI [5] was > 100 µM and the TGI [6] was > 100 µM. For the same compound, the TGI [7] was > 100 µM, the TGI [8] was > 100 µM and the TGI [9] was > 100 µM.
In the case of COc1ccc(C(=O)C(C(=O)CC(=O)Nc2cccc(C(F)(F)F)c2)c2ccc(OC)cc2)cc1 (stereo not given), the TGI [10] is reported as > 100 µM, the TGI [1] is reported as > 100 µM and the TGI [2] is reported as > 100 µM. For the same compound, the TGI [3] was > 100 µM, the TGI [4] was > 100 µM and the TGI [5] was > 100 µM. For the same compound, the TGI [6] was > 100 µM, the TGI [7] was > 100 µM and the TGI [8] was > 100 µM. For the same compound, the TGI [9] was > 100 µM.
COc1ccc(-c2cc(=O)c3ccccc3o2)cc1N was tested, and the TGI [10] was > 100 µM, the TGI [1] was > 100 µM and the TGI [2] was > 100 µM. The TGI [3] was > 100 µM, the TGI [4] was > 100 µM and the TGI [5] was > 100 µM. The TGI [6] was > 100 µM, the TGI [7] was > 100 µM and the TGI [8] was > 100 µM. The TGI [9] was > 100 µM.
In the case of C[C@]12CC[C@H](OC3OC(CO)C(O)C(O)C3O)C[C@H]1CC[C@@H]1[C@@H]2CC[C@]2(C)[C@@H](C3=CCOC3=O)CC[C@]12O (stereo not given in full), the GI50 [10] is reported as 23400 nM and > 100000 nM, the TGI [10] is reported as 50 µM and > 100 µM and the GI50 [1] is reported as > 100000 nM. The TGI [1] was 50 µM and > 100 µM, the GI50 [2] was > 100 µM and the TGI [2] was 50 µM and > 100 µM. The GI50 [3] was > 100 µM, the TGI [3] was 31.1 µM and > 100 µM and the GI50 [5] was > 100 µM. The TGI [5] was 45.7 µM and > 100 µM, the GI50 [6] was > 100 µM and the TGI [6] was > 100 µM. The GI50 [7] was > 100 µM, the TGI [7] was 50 µM and > 100 µM and the GI50 [8] was 23.4 µM and > 100 µM. The TGI [8] was 50 µM and > 100 µM, the GI50 [9] was > 100 µM and the TGI [9] was 50 µM and > 100 µM.
With O=C(O)NC(c1ccccc1)C(NC(=O)c1ccccc1)c1ccccc1 (stereo not given) the TGI [1] was > 100 µM, the TGI [3] was > 100 µM and the TGI [4] was > 100 µM. For the same compound, the TGI [7] was > 100 µM, the TGI [8] was > 100 µM and the TGI [9] was > 100 µM.
c1cc(N2CCCN(c3ccc(C4=NCCCN4)cc3)CC2)ccc1C1=NCCCN1 was tested, and the GI50 [10] was > 100000 nM, the TGI [10] was > 100 µM and the GI50 [1] was > 100000 nM. The TGI [1] was > 100 µM, the GI50 [3] was > 100 µM and the TGI [3] was > 100 µM. The GI50 [4] was > 100 µM, the TGI [4] was > 100 µM and the GI50 [5] was 46.6 µM. The TGI [5] was > 100 µM, the GI50 [8] was > 100 µM and the TGI [8] was > 100 µM. The GI50 [9] was > 100 µM and the TGI [9] was > 100 µM.
C=C(NC(=O)C(=C)NC(=O)c1csc(C2=NC3c4csc(n4)C4NC(=O)c5csc(n5)C(C(C)(O)C(C)O)NC(=O)C5CSC(=N5)C(=CC)NC(=O)C(C(C)O)NC(=O)c5csc(n5)C3(CC2)NC(=O)C(C)NC(=O)C(=C)NC(=O)C(C)NC(=O)C(C(C)CC)NC2C=Cc3c(C(C)O)cc(nc3C2O)C(=O)OC4C)n1)C(N)=O (stereo not given) gave a GI50 [10] of 1830 nM, a TGI [10] of 5.24 µM and a GI50 [1] of 2720 nM. For the same compound, the TGI [1] was 13.7 µM, the GI50 [2] was 28.8 µM and the TGI [2] was > 100 µM. The GI50 [4] was 7.02 µM, the TGI [4] was > 100 µM and the GI50 [5] was 4.69 µM. For the same compound, the TGI [5] was 19.8 µM, the GI50 [6] was 54 µM and the TGI [6] was > 100 µM. The GI50 [7] was 19.6 µM, the TGI [7] was > 100 µM and the GI50 [8] was 54 µM. For the same compound, the TGI [8] was > 100 µM, the GI50 [9] was 2.73 µM and the TGI [9] was > 100 µM.
Compound COc1cc(OC)c(SSCCCCS(=O)O)c(OC)c1 has a TGI [10] of 42.9 µM, a TGI [1] of 35.7 µM and a TGI [2] of 42.4 µM. The TGI [4] was 34.1 µM, the TGI [5] was 22.3 µM and the TGI [6] was 38.6 µM. It also gave a TGI [7] of 33.6 µM, a TGI [8] of 34.1 µM and a TGI [9] of 28.4 µM.
In the case of CC(=O)c1cccc(C)c1C(=O)O, the TGI [10] is reported as > 100 µM, the TGI [1] is reported as > 100 µM and the TGI [2] is reported as > 100 µM. For the same compound, the TGI [4] was > 100 µM, the TGI [5] was > 100 µM and the TGI [6] was > 100 µM. The TGI [7] was > 100 µM, the TGI [8] was > 100 µM and the TGI [9] was > 100 µM.
With C=C1C(C2(C)C(OC(C)=O)CC(=O)OC(C)(COC(C)=O)C2CC(=O)OC)C(OC=O)C(OC(=O)C(O)C(C)CC)C2(C)C(c3ccoc3)CC(=O)C12O (stereo not given) the TGI [1] was > 100 µM, the TGI [3] was > 100 µM and the TGI [4] was > 100 µM. For the same compound, the TGI [5] was > 100 µM, the TGI [6] was > 100 µM and the TGI [7] was > 100 µM. The TGI [8] was > 100 µM and the TGI [9] was > 100 µM.
